Assay results from publication PMC3920258, “Experimental Basis for the High Oral Toxicity of Dinophysistoxin 1: A Comparative Study of DSP” (Toxins, 2014).
Where two headings read alike, the source gives them in different places.

Tests used:
[1] = tested on: differentiated Caco-2 cells; experiment: AlamarBlue metabolic activity (viability) assay; type: cell-based, human; conditions: 1-1000 nM toxin, 6-72 h; highest 1000 nM for 72 h
Protocol: Metabolic activity assay: Cytotoxic effects of OA, DTX1 and DTX2 (1, 10, 20, 40, 100, 200, 500 and 1000 nM) in differentiated Caco-2 cells have been evaluated in a time-dependent manner by the AlamarBlue metabolic activity assay. Incubation with 0.01% Triton X-100 has been used as a positive control of death. Data are shown in Figure 2 as the percent of fluorescence vs. control.
The viability of the Caco-2 cells was measured by Alamar Blue assay, as previously described. Briefly, the Caco-2 cells were seeded onto 96-well plates at an initial concentration of 25,000 cells/mL and cultured until differentiation (21 days) with medium renewal every 2–3 days. Subsequently, cells were treated with increasing concentrations of OA, DTX1, DTX2 and Triton X-100 in the presence of AlamarBlue; then, fluorescence was measured at 6, 8, 10, 12, 24, 48 and 72 hours of incubation using a FL600 Microplate Fluorescence Reader from BioTek (Winooski, VT, USA) at an excitation wavelength of 530 nm and an emission wavelength of 590 nm. Control cells were considered as having 100% viability, and the results are expressed as the percentage of the fluorescence of treated cells versus the fluorescence of control ones.

[2] = tested on: differentiated Caco-2 monolayers; experiment: Annexin V-FITC apoptosis detection, confocal imaging; type: cell-based, human; conditions: 24 h; for annexin V-FITC fluorescence (apoptosis): 100 nM toxin; for annexin V-FITC fluorescence (apoptosis / cell death), positive controls: 1 μM STP, 100 mM NaBT, 0.005% Triton X-100
Source text: Cell membrane integrity assay: Some fluorescent methods allow a non-destructive evaluation of apoptosis by detecting changes in the structure of cell membranes. Annexin V has a high affinity for phosphatidylserine (PS), a phospholipid component located on the inner surface of the lipid bilayer of the cellular plasma membrane. During early apoptosis processes, this PS migrates to the outer portion, becomes exposed on the surface of the cell and can be detected by binding to annexin V labeled with a fluorescent dye. The annexin V assay was carried out in differentiated Caco-2 monolayers that were treated for 24 h with 100 nM of OA, DTX1, DTX2 or vehicle. Incubation with 0.005% Triton X-100 was used as a positive control of cell death and 1 μM staurosporine (STP) and 100 mM sodium butyrate (NaBT) as inductors of cell apoptosis.
To visualize apoptosis by confocal microscopy in the toxin-treated Caco-2 monolayers, an apoptosis detection kit containing annexin V conjugated with FITC from Immunostep (Salamanca, Spain) was used.
Caco-2 cells were seeded on glass coverslips at an initial concentration of 65 × 10^3 cells/mL and cultured for 21 days until differentiation with medium renewal each 2–3 days. On the 21st day, the cell medium was removed, and the monolayers were treated for 24 h with toxins: OA, DTX1, DTX2, vehicle and positive controls of apoptosis and cellular death (staurosporine (STP), sodium butyrate (NaBT) and Triton-X 100). Immediately after the 24 h of incubation, the medium was removed, and the cells were rinsed 3 times with PBS just before the addition of annexin V-FITC in a proportion of 1:100 diluted in the provided binding buffer. After 15 min of incubation in the dark at room temperature, the cells were rinsed again 3 times with PBS and fixed using paraformaldehyde 2% for 15 min at 4 °C. Finally, another 3 washes with PBS were required prior to mounting the coverslips over microscope glass slides with 10 μL of PBS/Glycerol (1:1) and sealing the edges with nail varnish. Confocal imaging was then carried out with a 40× oil immersion objective of a Nikon Eclipse TE2000-E inverted microscope attached to the C1 laser confocal system and EZ-C1 V.2.20 software (Nikon Instruments Europe B.V., Amstelveen, Netherlands). An argon laser was used to excite the annexin V-FITC conjugated protein (λ excitation = […], λ emission = […]).

[3] = tested on: differentiated Caco-2 monolayers; experiment: Trans-epithelial electrical resistance (TEER) measurement; type: cell-based, human; conditions: 10, 50 and 100 nM; 3, 6, 12 and 24 h
Protocol: We assessed tight junction formation stability through measurements of trans-epithelial electrical resistance (TEER). […] We studied the changes that OA, DTX1 and DTX2 induced in the TEER of the Caco-2 monolayer as a function of time. Differentiated Caco-2 monolayers were incubated with 10, 50 and 100 nM OA, DTX1 and DTX2. TEER was measured immediately before the toxins addition and after 3, 6, 12 and 24 h of incubation with them.
Trans epithelial electric resistance (TEER) was measured across differentiated Caco-2 monolayers, as previously described. The measurements were performed before the treatment with OA, DTX1 and DTX2 (controls), and after each of the incubation times established: 3, 6, 12 and 24 h. Only inserts with TEER higher than 300 Ωcm^2 before the addition of the toxin were used for further testing.

occludin in Caco-2 cells = experiment: Confocal microscopy imaging of occludin; type: cell-based, human; conditions: 24 h; for occludin distribution / location: 100 nM toxin; for occludin distribution, positive controls: 0.005% Triton X-100, 100 mM NaBT, 1 μM STP
Protocol: Tight-junction strands are composed of membrane integral proteins, occludin being the best-studied member. We evaluate the integrity of such tight-junctions in Caco-2 cells treated with 100 nM OA, DTX1 and DTX2 for 24 h by labeling occludin. […] (Figure 5C).
Alexa Fluor® 488-labeled anti-occludin mouse monoclonal antibody from Invitrogen (Camarillo, CA, USA) was used for visualizing occludin, as previously described.
Briefly, differentiated Caco-2 monolayers were treated with OA, DTX1, DTX2, vehicle and positive controls of apoptosis and cellular death: staurosporine (STP), sodium butyrate (NaBT) and Triton-X 100. Immediately after treatments, the cells were fixed and incubated with the anti-occludin antibody. Each experimental condition was performed in duplicate. Confocal imaging was then carried out with a 40× oil immersion objective of a Nikon Eclipse TE2000-E inverted microscope attached to the C1 laser confocal system and EZ-C1 V.2.20 software (Nikon Instruments Europe B.V., Amstelveen, Netherlands). An Argon laser was used to excite the Alexa Fluor 488 conjugated antibody.

[4] = tested on: differentiated Caco-2 monolayers; experiment: Caco-2 permeability assay with microsphere-based immunoassay quantification; type: in vitro ADME, human; conditions: 50 and 100 nM; 3, 6, 12 and 24 h
Protocol: With the aim of evaluating the transport of OA, DTX1 and DTX2 through the cell monolayer, we performed the permeability assays as described in Section 4.7. Caco-2 cell monolayers were incubated with OA, DTX1 and DTX2 for 3, 6, 12 and 24 h. […] According to the results, almost all the OA and DTX2 remain in the apical side (Figure 6 A,D and C,F). […] Likewise, in the absence of a cell monolayer (shown as no cells in Figure 6), all the toxins easily flow over inserts.
The permeability assay was carried out as previously described. During the assays, cell monolayer integrity was evaluated by measuring TEER at the start and end of the experiment. Once the incubation with the toxins (OA, DTX1 and DTX2) finished (after 3, 6, 12 or 24 h), the medium was collected from both the insert (donor compartment/apical side of the monolayer) and the well (receiver compartment/basolateral side of the monolayer) for toxin quantification purposes. Previously, we confirmed that the toxins easily flow over the naked inserts.
OA, DTX1 and DTX2 samples taken from the inserts/donor compartments and wells/receptor compartments where quantified, as previously described by Fraga et al.. In order to consider the cross-reactivity of the analyzed derivatives of the okadaic acid, DTX-1 and DTX-2, calibration curves were prepared using calibration solutions with CRMs of DTX-1 and DTX-2. Therefore, the quantification of DTX-1 and DTX-2 samples collected from permeability assays were quantified against their respective calibration curves.

PP2A = conditions: cited from earlier work
mice [5] = conditions: cited from earlier work
mice [6] = conditions: oral, cited from earlier work; for lethal oral dose: mice
Caco-2 monolayers = conditions: cited from earlier work
Caco-2 cells [7] = tested on: Caco-2 cells; parameters: method as in PMID 10806372; conditions: 1–2 μM; cited from earlier work
Caco-2 cells [8] = tested on: Caco-2 cells; parameters: method as in PMID 21093526; conditions: after 24 h; cited from earlier work
mice [9] = conditions: oral administration to mice; cited from earlier work
[10] = EFSA, based on mice i.p. toxicity, reference OA

Molecule	fluorescence intensity (percent of viability vs. control) [1]	annexin V-FITC fluorescence (apoptosis) [2]	change in TEER values [3]	occludin distribution / location (occludin in Caco-2 cells)	transport across the Caco-2 monolayer (apical to basolateral) [4]	toxicity equivalent factor (TEF) (mice [5]; [10])	annexin V-FITC fluorescence (apoptosis / cell death), positive controls [2]	occludin distribution, positive controls (occludin in Caco-2 cells)	other results
C=C1C(O)C2OC3(CCC(C=CC(C)C4CC(C)=CC5(OC(CC(C)(O)C(=O)O)CCC5O)O4)O3)CCC2OC1C(O)CC(C)C1CCCC2(OCCCC2C)O1 (centres unmarked) [DTX2, dinophysistoxin-2]	did not show any decrease in fluorescence intensity	Lack of fluorescence	did not induce any change	no modifications on the distribution of occludin	unable to cross the Caco-2 monolayer	0.6			toxicity relative to OA (PP2A): equal toxicity; toxicity equivalent factor (TEF) (mice [5]; acute intraperitoneal toxicity in mice): 0.6; minimum lethal dose (mice [5]; mice, i.p.): 350 μg/kg b.w.
CCCC(=O)[O-].[Na+] [NaBT, sodium butyrate]							evident FITC green fluorescence zones	redistribution of occludin with adjacent diffuse intracellular staining and a granular appearance	
C=C1[C@@H](O)[C@@H]2O[C@]3(CC[C@H](/C=C/[C@@H](C)[C@@H]4CC(C)=C[C@@]5(O[C@H](C[C@@](C)(O)C(=O)O)CC[C@H]5O)O4)O3)CC[C@H]2O[C@@H]1[C@@H](O)C[C@H](C)[C@H]1O[C@@]2(CCCCO2)CC[C@H]1C [OA, okadaic acid]	did not show any decrease in fluorescence intensity	Lack of fluorescence	did not induce any change	no modifications on the distribution of occludin	unable to cross the Caco-2 monolayer	1			lethal oral dose (mice [6]; ref 54): 400 μg/kg b.w.; lethal oral dose (mice [6]; ref 55): 880 μg/kg b.w.; mice dead (mice [6]; 1000 μg/kg b.w): 0/5; mice dead (mice [6]; 2000 μg/kg b.w.): 4/5; TEER changes (Caco-2 monolayers; 1 to 2 μM, 30 to 90 min): significant TEER reduction; concentration that decreased the TEER of Caco-2 monolayers (Caco-2 monolayers): ≥ 600 nM; TEER changes (Caco-2 monolayers; differentiated Caco-2 monolayers, up to 200 nM for 24h): absence of TEER changes; cell membrane damage and LDH release (Caco-2 cells [7]): no cell membrane damage nor LHD release; applied dose found in the basolateral side (Caco-2 cells [8]): 2%; applied dose trapped into Caco-2 cells (Caco-2 cells [8]): 2%–3; time to repair of damage to the intestinal ultrastructure (mice [9]): ≤ 24 h
Triton X-100							heavily damaged cell monolayer with noticeable loss of substrate adhesion and fluorescent green dots	redistribution of occludin with adjacent diffuse intracellular staining and a granular appearance	
CN[C@@H]1C[C@H]2O[C@@](C)([C@@H]1OC)n1c3ccccc3c3c4c(c5c6ccccc6n2c5c31)C(=O)NC4 [STP, staurosporine]							evident FITC green fluorescence zones	redistribution of occludin with adjacent diffuse intracellular staining and a granular appearance	
